# pIC50: −log10 of the molar value.
# Test system: NCI-H196 complex spheroids with HUVEC/MSC, growth % T/C
# Assay: Anticancer human tumor NCI-H196 cell line growth inhibition [Asc];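 also: spheroids exposed to compound for 7 days before measurement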;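 as to viability, T/C: 100% = DMSO vehicle control wells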
# Settings: for pIC50: curve of first compound; for viability, T/C: stronger effect = lower value
# Method in brief: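 Tumor cells were grown as multicellular spheroids with stromal HUVEC and mesenchymal stem cells and treated singly or in combination. Concentrations fell in half-log steps from the clinical Cmax, or from 10 microM where none was known.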
# [1] = second compound 0.1 µM, first compound 0.00316 µM
# [2] = second compound 0.1 µM, first compound 0.01 µM
# [3] = second compound 0.1 µM, first compound 0.0316 µM
# [4] = second compound 0.1 µM, first compound 0.1 µM
# [5] = second compound 0.1 µM, first compound 0.316 µM
# [6] = second compound 0.1 µM, first compound 1 µM
# [7] = second compound 0.316 µM, first compound 0.00316 µM
# [8] = second compound 0.316 µM, first compound 0.01 µM
# [9] = second compound 0.316 µM, first compound 0.0316 µM
# [10] = second compound 0.316 µM, first compound 0.1 µM
# [11] = second compound 0.316 µM, first compound 0.316 µM
# [12] = second compound 0.316 µM, first compound 1 µM
# [13] = second compound 1 µM, first compound 0.00316 µM
# [14] = second compound 1 µM, first compound 0.01 µM
# [15] = second compound 1 µM, first compound 0.0316 µM
# [16] = second compound 1 µM, first compound 0.1 µM
# [17] = second compound 1 µM, first compound 0.316 µM
# [18] = second compound 1 µM, first compound 1 µM
# [19] = second compound 3.16 µM, first compound 0.00316 µM
# [20] = second compound 3.16 µM, first compound 0.01 µM
# [21] = second compound 3.16 µM, first compound 0.0316 µM
# [22] = second compound 3.16 µM, first compound 0.1 µM
# [23] = second compound 3.16 µM, first compound 0.316 µM
# [24] = second compound 3.16 µM, first compound 1 µM
# [25] = second compound 10 µM, first compound 0.00316 µM
# [26] = second compound 10 µM, first compound 0.01 µM
# [27] = second compound 10 µM, first compound 0.0316 µM
# [28] = second compound 10 µM, first compound 0.1 µM
# [29] = second compound 10 µM, first compound 0.316 µM
# [30] = second compound 10 µM, first compound 1 µM
# [31] = second compound 0.1 µM, first compound 0.000316 µM
# [32] = second compound 0.1 µM, first compound 0.001 µM
# [33] = second compound 0.316 µM, first compound 0.000316 µM
# [34] = second compound 0.316 µM, first compound 0.001 µM
# [35] = second compound 1 µM, first compound 0.000316 µM
# [36] = second compound 1 µM, first compound 0.001 µM
# [37] = second compound 3.16 µM, first compound 0.000316 µM
# [38] = second compound 3.16 µM, first compound 0.001 µM
# [39] = second compound 10 µM, first compound 0.000316 µM
# [40] = second compound 10 µM, first compound 0.001 µM
compound,measurement,setting,value
CCN1CCN(Cc2ccc(Nc3ncc(F)c(-c4cc(F)c5nc(C)n(C(C)C)c5c4)n3)nc2)CC1 + Cc1c(S(C)(=O)=O)c(-c2cc(F)cc(N3CCN(c4ccc(NS(=O)(=O)c5ccc(NC(CCN6CCC(C(=O)OCCCP(=O)(O)O)CC6)CSc6ccccc6)c(S(=O)(=O)C(F)(F)F)c5)cc4)CC3)c2)c(-c2ccc(Cl)cc2)n1C(C)C,pIC50,second compound 0.1 µM,< 6.00
same,pIC50,second compound 0.316 µM,< 6.00
same,pIC50,second compound 1 µM,< 6.00
same,pIC50,second compound 3.16 µM,< 6.00
same,pIC50,second compound 10 µM,< 6.00
same,"viability, T/C",[1],101%
same,"viability, T/C",[2],95.4%
same,"viability, T/C",[3],101%
same,"viability, T/C",[4],104%
same,"viability, T/C",[5],102%
same,"viability, T/C",[6],109%
same,"viability, T/C",[7],94.1%
same,"viability, T/C",[8],102%
same,"viability, T/C",[9],92.6%
same,"viability, T/C",[10],104%
same,"viability, T/C",[11],104%
same,"viability, T/C",[12],113%
same,"viability, T/C",[13],92.2%
same,"viability, T/C",[14],91.7%
same,"viability, T/C",[15],92.2%
same,"viability, T/C",[16],102%
same,"viability, T/C",[17],104%
same,"viability, T/C",[18],105%
same,"viability, T/C",[19],90.2%
same,"viability, T/C",[20],88.8%
same,"viability, T/C",[21],80.1%
same,"viability, T/C",[22],85.3%
same,"viability, T/C",[23],93.1%
same,"viability, T/C",[24],86%
same,"viability, T/C",[25],77.2%
same,"viability, T/C",[26],76.2%
same,"viability, T/C",[27],81.4%
same,"viability, T/C",[28],83.6%
same,"viability, T/C",[29],86.2%
same,"viability, T/C",[30],80.8%
Cn1ncnc1[C@H]1c2n[nH]c(=O)c3cc(F)cc(c23)N[C@@H]1c1ccc(F)cc1 + Cc1c(S(C)(=O)=O)c(-c2cc(F)cc(N3CCN(c4ccc(NS(=O)(=O)c5ccc(NC(CCN6CCC(C(=O)OCCCP(=O)(O)O)CC6)CSc6ccccc6)c(S(=O)(=O)C(F)(F)F)c5)cc4)CC3)c2)c(-c2ccc(Cl)cc2)n1C(C)C,pIC50,second compound 0.1 µM,< 7.00
same,pIC50,second compound 0.316 µM,< 7.00
same,pIC50,second compound 1 µM,< 7.00
same,pIC50,second compound 3.16 µM,< 7.00
same,pIC50,second compound 10 µM,< 7.00
same,"viability, T/C",[31],107%
same,"viability, T/C",[32],101%
same,"viability, T/C",[1],102%
same,"viability, T/C",[2],101%
same,"viability, T/C",[3],94.8%
same,"viability, T/C",[4],98.4%
same,"viability, T/C",[33],102%
same,"viability, T/C",[34],105%
same,"viability, T/C",[7],107%
same,"viability, T/C",[8],95.2%
same,"viability, T/C",[9],89%
same,"viability, T/C",[10],93.4%
same,"viability, T/C",[35],97%
same,"viability, T/C",[36],94.9%
same,"viability, T/C",[13],94.5%
same,"viability, T/C",[14],95.7%
same,"viability, T/C",[15],86.2%
same,"viability, T/C",[16],94%
same,"viability, T/C",[37],93.1%
same,"viability, T/C",[38],84.4%
same,"viability, T/C",[19],78.5%
same,"viability, T/C",[20],79.1%
same,"viability, T/C",[21],80.1%
same,"viability, T/C",[22],80.1%
same,"viability, T/C",[39],77.2%
same,"viability, T/C",[40],85%
same,"viability, T/C",[25],78.7%
same,"viability, T/C",[26],73.9%
same,"viability, T/C",[27],62.8%
same,"viability, T/C",[28],66.8%
NC(=O)C(=Cn1cnc(-c2cc(C(F)(F)F)cc(C(F)(F)F)c2)n1)c1cncnc1 + Cc1c(S(C)(=O)=O)c(-c2cc(F)cc(N3CCN(c4ccc(NS(=O)(=O)c5ccc(NC(CCN6CCC(C(=O)OCCCP(=O)(O)O)CC6)CSc6ccccc6)c(S(=O)(=O)C(F)(F)F)c5)cc4)CC3)c2)c(-c2ccc(Cl)cc2)n1C(C)C,pIC50,second compound 0.1 µM,7.71
same,pIC50,second compound 0.316 µM,7.63
same,pIC50,second compound 1 µM,7.67
same,pIC50,second compound 3.16 µM,7.70
same,pIC50,second compound 10 µM,7.83
same,"viability, T/C","second compound 0.1 µM, first compound 0.000949 µM",101%
same,"viability, T/C","second compound 0.1 µM, first compound 0.003 µM",89.2%
same,"viability, T/C","second compound 0.1 µM, first compound 0.00949 µM",72.1%
same,"viability, T/C","second compound 0.1 µM, first compound 0.03 µM",38.7%
same,"viability, T/C","second compound 0.1 µM, first compound 0.0949 µM",4.69%
same,"viability, T/C","second compound 0.1 µM, first compound 0.3 µM",1.47%
same,"viability, T/C","second compound 0.316 µM, first compound 0.000949 µM",95.5%
same,"viability, T/C","second compound 0.316 µM, first compound 0.003 µM",89%
same,"viability, T/C","second compound 0.316 µM, first compound 0.00949 µM",78.9%
same,"viability, T/C","second compound 0.316 µM, first compound 0.03 µM",43.4%
same,"viability, T/C","second compound 0.316 µM, first compound 0.0949 µM",3.08%
same,"viability, T/C","second compound 0.316 µM, first compound 0.3 µM",1.16%
same,"viability, T/C","second compound 1 µM, first compound 0.000949 µM",91.2%
same,"viability, T/C","second compound 1 µM, first compound 0.003 µM",83.5%
same,"viability, T/C","second compound 1 µM, first compound 0.00949 µM",72.3%
same,"viability, T/C","second compound 1 µM, first compound 0.03 µM",42.8%
same,"viability, T/C","second compound 1 µM, first compound 0.0949 µM",2.35%
same,"viability, T/C","second compound 1 µM, first compound 0.3 µM",1.29%
same,"viability, T/C","second compound 3.16 µM, first compound 0.000949 µM",78%
same,"viability, T/C","second compound 3.16 µM, first compound 0.003 µM",78.5%
same,"viability, T/C","second compound 3.16 µM, first compound 0.00949 µM",64.1%
same,"viability, T/C","second compound 3.16 µM, first compound 0.03 µM",42.5%
same,"viability, T/C","second compound 3.16 µM, first compound 0.0949 µM",2.09%
same,"viability, T/C","second compound 3.16 µM, first compound 0.3 µM",1.75%
same,"viability, T/C","second compound 10 µM, first compound 0.000949 µM",76.4%
same,"viability, T/C","second compound 10 µM, first compound 0.003 µM",74.3%
same,"viability, T/C","second compound 10 µM, first compound 0.00949 µM",59.6%
same,"viability, T/C","second compound 10 µM, first compound 0.03 µM",33.5%
same,"viability, T/C","second compound 10 µM, first compound 0.0949 µM",2.89%
same,"viability, T/C","second compound 10 µM, first compound 0.3 µM",1.28%
NC1CCC(NC2CC2c2ccccc2)CC1 (stereo not given) + Cc1c(S(C)(=O)=O)c(-c2cc(F)cc(N3CCN(c4ccc(NS(=O)(=O)c5ccc(NC(CCN6CCC(C(=O)OCCCP(=O)(O)O)CC6)CSc6ccccc6)c(S(=O)(=O)C(F)(F)F)c5)cc4)CC3)c2)c(-c2ccc(Cl)cc2)n1C(C)C,pIC50,second compound 0.1 µM,< 7.00
same,pIC50,second compound 0.316 µM,< 7.00
same,pIC50,second compound 1 µM,< 7.00
same,pIC50,second compound 3.16 µM,< 7.00
same,pIC50,second compound 10 µM,< 7.00
same,"viability, T/C",[31],91.7%
same,"viability, T/C",[32],100%
same,"viability, T/C",[1],84.5%
same,"viability, T/C",[2],93.7%
same,"viability, T/C",[3],93.1%
same,"viability, T/C",[4],85.7%
same,"viability, T/C",[33],91.8%
same,"viability, T/C",[34],88.7%
same,"viability, T/C",[7],97%
same,"viability, T/C",[8],96.7%
same,"viability, T/C",[9],97.5%
same,"viability, T/C",[10],91.6%
same,"viability, T/C",[35],89.1%
same,"viability, T/C",[36],88.7%
same,"viability, T/C",[13],89.8%
same,"viability, T/C",[14],85.1%
same,"viability, T/C",[15],87.5%
same,"viability, T/C",[16],80%
same,"viability, T/C",[37],79.4%
same,"viability, T/C",[38],86.6%
same,"viability, T/C",[19],79.2%
same,"viability, T/C",[20],75.9%
same,"viability, T/C",[21],78%
same,"viability, T/C",[22],76%
same,"viability, T/C",[39],69.7%
same,"viability, T/C",[40],73.5%
same,"viability, T/C",[25],69.3%
same,"viability, T/C",[26],74%
same,"viability, T/C",[27],76.6%
same,"viability, T/C",[28],71.1%
O=C(c1ccc(F)c(F)c1Nc1ccc(I)cc1F)N1CC(O)([C@@H]2CCCCN2)C1 + Cc1c(S(C)(=O)=O)c(-c2cc(F)cc(N3CCN(c4ccc(NS(=O)(=O)c5ccc(NC(CCN6CCC(C(=O)OCCCP(=O)(O)O)CC6)CSc6ccccc6)c(S(=O)(=O)C(F)(F)F)c5)cc4)CC3)c2)c(-c2ccc(Cl)cc2)n1C(C)C,pIC50,second compound 0.1 µM,< 6.00
same,pIC50,second compound 0.316 µM,< 6.00
same,pIC50,second compound 1 µM,< 6.00
same,pIC50,second compound 3.16 µM,< 6.00
same,pIC50,second compound 10 µM,< 6.00
same,"viability, T/C",[1],103%
same,"viability, T/C",[2],104%
same,"viability, T/C",[3],108%
same,"viability, T/C",[4],102%
same,"viability, T/C",[5],117%
same,"viability, T/C",[6],125%
same,"viability, T/C",[7],99%
same,"viability, T/C",[8],96.1%
same,"viability, T/C",[9],88.6%
same,"viability, T/C",[10],97.4%
same,"viability, T/C",[11],105%
same,"viability, T/C",[12],117%
same,"viability, T/C",[13],84.9%
same,"viability, T/C",[14],89.1%
same,"viability, T/C",[15],93.9%
same,"viability, T/C",[16],106%
same,"viability, T/C",[17],108%
same,"viability, T/C",[18],117%
same,"viability, T/C",[19],79.8%
same,"viability, T/C",[20],87.3%
same,"viability, T/C",[21],87.8%
same,"viability, T/C",[22],85.4%
same,"viability, T/C",[23],102%
same,"viability, T/C",[24],106%
same,"viability, T/C",[25],74.5%
same,"viability, T/C",[26],85.8%
same,"viability, T/C",[27],81.2%
same,"viability, T/C",[28],83%
same,"viability, T/C",[29],90.6%
same,"viability, T/C",[30],97%

# From PubChem BioAssay AID1963439 (Molecular Pharmacology Branch, DTP, NCI, 2024)
